{"source": "patent US20250197865A1", "about": "“PHARMACEUTICAL COMPOSITION FOR TREATMENT OR PREVENTION OF FIBROTIC DISEASE” (KYUSHU UNIVERSITY, NATIONAL UNIVERSITY CORPORATION, priority 2022, published 2025)", "key": {"SMAD3 mRNA": {"system": "SMAD3 mRNA", "assay": "si Smad3 transfection of myofibroblasts from carbon tetrachloride-induced fibrotic liver, SMAD3 mRNA", "type": "cell-based, mouse", "settings": "myofibroblasts from CCl4 liver fibrosis model; versus si Ctrl; FIG. 26c", "protocol": "The mRNA expression levels of P4HA3 etc. in the examples of the present specification were quantified as follows. The concentration of purified RNA was determined using a microspectrophotometer DS-11 (DeNovix), and reverse transcription to cDNA was performed using a High Capacity cDNA Reverse Transcription Kit (Applied Biosystems). Quantification of mRNA was performed according to the protocol of Luna Universal qPCR Master Mix (New England BioLabs), with DNA polymerase activation at 95° C. for 60 seconds, followed by 45 cycles of cDNA denaturation at 95° C. for 15 seconds and extension at 60° C. for 30 seconds. Analysis was performed by the AACt method using GAPDH as an internal standard. Mouse Cyp7al probe was purchased from Applied Biosystems. Primers and probes for mouse α-smooth muscle actin (α-SMA), CD68, 1α1 collagen (Col1α1), 1α2 collagen (Col1α2), 1α3 collagen (Col1α3), 6α1 collagen (Col6α1), 8α1 collagen (Co81α1), GAPDH (glyceraldehyde-3-phosphate dehydrogenase), heat shock protein 47 (Hsp47), prolyl 4-hydroxylase alphal subunit (P4HA1), prolyl 4-hydroxylase alpha2 subunit (P4HA2), and prolyl 4-hydroxylase alpha3 subunit (P4HA3) were purchased from Sigma-Aldrich.\nHepatic stellate cells, which are involved in liver fibrosis, are known to be activated by TGFβ (Fabregat, I. et al., FEBS J., 283:2219-2232 (2016)). […]"}, "[1]": {"system": "mRNA expression of fibrosis-related factors (collagens, elastin) in myofibroblasts", "assay": "siRNA treatment of myofibroblasts from carbon tetrachloride-induced fibrotic liver, fibrosis-related factor mRNA by real-time RT-PCR", "type": "cell-based, mouse", "settings": "myofibroblasts from CCl4 liver fibrosis model; si Smad3 versus si Ctrl; P4HA3, Col1α1, Col1α2, Col3α1; FIG. 26c"}}, "data": [{"substance": "si Smad3: siRNA for mouse SMAD3, SEQ ID NOs: 14 and 15; ThermoFisher Scientific catalog 4390771, Assay ID s69495 (chain 1 GGAATTTGCTGCCCTCCTATT; chain 2 TAGGAGGGCAGCAAATTCCCT; listed as DNA, chemistry not given here)", "values": [{"measurement": "mRNA expression of SMAD3", "setting": "SMAD3 mRNA", "value": "inhibits"}, {"measurement": "mRNA expression of fibrosis-related factors including P4HA3", "setting": "[1]", "value": "suppressed"}]}]}
